Test results: patent publication US9393199B2, “Methods and compositions for localized agent delivery” (Massachusetts Institute of Technology, priority 2008, dated 2016)

How the values were obtained:
[1] = system: lineage−Sca-1+c-kit+ progenitor cells; test: Reconstitution by hematopoietic progenitor cell grafts in lethally irradiated recipients; format: in vivo; conditions: 1.6 ng TWS119 at the time of transplantation
Procedure: FIGS. 14A-D. Hematopoietic progenitor cells (referred to in the Figure as HSCs) carrying GSK-3β inhibitor-loaded nanoparticles reconstitute recipient animals with rapid kinetics following bone marrow transplants without affecting multilineage differentiation potential. (A, B) Engraftment kinetics of luciferase-transgenic HSC grafts in lethally-irradiated nontransgenic syngeneic recipients. Mice were treated with a single bolus injection of the GSK-3β inhibitor TWS119 (1.6 ng) on the day of transplantation, an equivalent TWS119 dose encapsulated in HSC-attached DNA-gel nanoparticles, or no exogenous agent. Transplanted mice were imaged for whole-body bioluminescence every 7 days for 3 weeks. Shown are representative IVIS images (A) and whole animal photon counts (B) for 9 mice total/treatment condition. (C) Percentage of donor-derived cells in recipient mice 2 weeks after transplantation of GFP^+ HSCs with or without TWS119. *P<0.001. (D) Average frequency of donor-derived GFP^+ B cells, T cells, and myeloid cells in recipient mice 3 months after transplantation. 5 mice/group were analyzed.
We further examined the utility of this delivery approach in the context of hematopoietic stem cell transplantations. We treated C57Bl/6 F-luc-transgenic mice or C57Bl/6 GFP-transgenic mice with 5-fluorouracil (5-FU, Sigma Aldrich) (150 mg/kg, i.p) and euthanized them 3 days later. […]

[2] = Release of cargo from lipid-coated DNA-gel nanoparticles (data not shown); format: physicochemical; conditions: lipid-coated DNA-gel particles ~200 nm
[3] = cited from earlier work
[4] = systemic, delivered orally, humans; cited from earlier work
[5] = Kinetics of protein release from lipid-coated PLGA particles in vitro (ELISA of supernatant); format: physicochemical; conditions: complete RPMI 10% FCS, 37° C., by the end of the incubation period (~1 week)
Procedure: FIGS. 5A-C. Protein and TLR ligand incorporation in lipid-coated PLGA nanoparticles. (A) Confocal image (left) and cryoEM image (right) of lipid-coated nanoparticles loaded with fluorescent ova in the particle cores. Note that the particles in the confocal image are artificially aggregated here by drying on a coverslip for imaging. (B) Kinetics of IL-15 release from lipid-coated PLGA particles in vitro in complete medium at 37° C. (C) Bone marrow-derived DCs were incubated with 3 mg/mL lipid-nanoparticles containing 1 mole % or 10 mole % MPLA in the lipid coating, equivalent amounts of soluble MPLA (30 μg/mL or 3 μg/mL), or soluble LPS (1 μg/mL) as a positive control. At 24 hrs, the maturation status of the cells was assessed by flow cytometry analysis of cell surface MHC II, CD80, and CD40 (not shown).
Ova however is a model globular protein and as such it was chosen to illustrate the behavior of other proteins such as interleukin-15 (IL-15) superagonist molecules which can be used to support ACT T cells. […] The kinetics of IL-15 release from the particles was determined by incubating the particles in complete RPMI medium containing 10% FCS at 37° C. with gentle agitation and taking aliquots of the supernatant at staggered timepoints for ELISA analysis of cytokine content. […]

[6] = systemically injected; cited from earlier work

Question: For `Nc1cccc(-c2cc3c(Oc4cccc(O)c4)ncnc3[nH]2)c1` [TWS119], which “engraftment kinetics / proliferative reconstitution of progenitor cell grafts” value [1] is on record?
Answer: did not significantly alter

Question: What about the “period of slow release from DNA-gel nanoparticles” value [2] of the same compound?
Answer: 7 days

Question: What does the source list for `CC(C)Cn1cnc2c(N)nc3ccccc3c21` [imiquimod]?
Answer: half-life following injection [3]: ~2 h; toxicity [4]: dose-limiting toxicity

Question: With “IL-15: Interleukin-15, cytokine; encapsulated alone in lipid-coated PLGA particles in b217” as the compound, how does the encapsulated cytokine released [5] read?
Answer: ~80%

Question: And the half life [6]?
Answer: ~1 h
